In patent US4360458A, “Antitumor antibacterial agents” (priority 1980, dated 1982):
In brackets after ≈: the same amount, converted by molar mass.

Key:
[1] = system: lysogenic bacterium; assay: Prophage induction in lysogenic bacterium (ILB); type: cell-based; settings: up to a concentration of 100 mcg./ml
Protocol: The activity of prophage induction in lysogenic bacterium (ILB) was determined for BBM-928 components.

[2] = system: P388 leukemia; assay: Antitumor activity, intraperitoneally implanted tumor; type: in vivo, mouse
Protocol: (§1) Comparative testing of BBM-928 components A, B, C and D with mitomycin C for antitumor activity was carried out with the intraperitoneally implanted tumors: P388 leukemia, L1210 leukemia, B16 melamoma, Lewis Lung (LL) carcinoma, and sarcoma 180 ascites (S180). […] By varying dosage, the minimum effective dose (MED) was determined which provided a median survival time value for the treated animals at least 1.25 times greater than a control group. This level of activity is considered to be a measure of significant antitumor activity. […] Expt. Path.

[3] = system: P. vulgaris A9436; assay: MIC, serial agar dilution method; type: cell-based; settings: nutrient agar pH 7, overnight 37° C.
Protocol: (§2) Antimicrobial activity of BBM-928 components was determined against a variety of bacteria and fungi by serial agar dilution method in nutrient agar at pH 7 using Steer's multi-inoculating apparatus. The inoculum size was standardized to apply a 0.0025-ml aliquot of test organisms containing approximately 10^4 cell/ml for all bacteria and fungi except acid-fast bacteria for which a 10^6 cell/ml suspension was used.

[4] = system: C. neoformans; assay: MIC, serial agar dilution method; type: cell-based; settings: nutrient agar pH 7, overnight 37° C.
Protocol: as §2

[5] = system: P. mirabilis A9554; assay: MIC, serial agar dilution method; type: cell-based; settings: nutrient agar pH 7, overnight 37° C.
Protocol: as §2

[6] = system: S. aureus 209P; assay: MIC, serial agar dilution method; type: cell-based; settings: nutrient agar pH 7, overnight 37° C.
Protocol: as §2

[7] = system: A. faecalis ATCC 8750; assay: MIC, serial agar dilution method; type: cell-based; settings: nutrient agar pH 7, overnight 37° C.
Protocol: as §2

[8] = system: E. coli NIHJ; assay: MIC, serial agar dilution method; type: cell-based; settings: nutrient agar pH 7, overnight 37° C.
Protocol: as §2

[9] = system: S. lutea PCI 1001; assay: MIC, serial agar dilution method; type: cell-based; settings: nutrient agar pH 7, overnight 37° C.
Protocol: as §2

[10] = system: P. morganii A9553; assay: MIC, serial agar dilution method; type: cell-based; settings: nutrient agar pH 7, overnight 37° C.
Protocol: as §2

[11] = system: K. pneumoniae D-11; assay: MIC, serial agar dilution method; type: cell-based; settings: nutrient agar pH 7, overnight 37° C.
Protocol: as §2

[12] = system: B. subtilis PCI 219; assay: MIC, serial agar dilution method; type: cell-based; settings: nutrient agar pH 7, overnight 37° C.
Protocol: as §2

[13] = system: M. smegmatis 607 D87; assay: MIC, serial agar dilution method; type: cell-based; settings: nutrient agar pH 7, overnight 37° C., 10^6 cell/ml inoculum
Protocol: as §2

[14] = system: B. megaterium D2; assay: MIC, serial agar dilution method; type: cell-based; settings: nutrient agar pH 7, overnight 37° C.
Protocol: as §2

[15] = system: S. pyogenes S-23; assay: MIC, serial agar dilution method; type: cell-based; settings: nutrient agar pH 7, overnight 37° C.
Protocol: as §2

[16] = system: C. xerosis 53K-1; assay: MIC, serial agar dilution method; type: cell-based; settings: nutrient agar pH 7, overnight 37° C.
Protocol: as §2

[17] = system: P. aeruginosa A9930; assay: MIC, serial agar dilution method; type: cell-based; settings: nutrient agar pH 7, overnight 37° C.
Protocol: as §2

[18] = system: M. phlei D88; assay: MIC, serial agar dilution method; type: cell-based; settings: nutrient agar pH 7, overnight 37° C., 10^6 cell/ml inoculum
Protocol: as §2

[19] = system: S. marcescens A20019; assay: MIC, serial agar dilution method; type: cell-based; settings: nutrient agar pH 7, overnight 37° C.
Protocol: as §2

[20] = system: M. flavus D12; assay: MIC, serial agar dilution method; type: cell-based; settings: nutrient agar pH 7, overnight 37° C.
Protocol: as §2

[21] = system: C. arbicans IAM 4888; assay: MIC, serial agar dilution method; type: cell-based; settings: nutrient agar pH 7, overnight 37° C.
Protocol: as §2

[22] = Intraperitoneal LD50, method of Van der Waerden
[23] = system: B. anthracis A9504; type: cell-based; settings: nutrient agar pH 7, overnight 37° C.
[24] = system: sarcoma 180 ascites (S180); assay: Antitumor activity, intraperitoneally implanted tumor; type: in vivo, mouse
Protocol: as §1

[25] = system: L1210 leukemia; assay: as above; type: in vivo, mouse
Protocol: as §1

[26] = system: Lewis Lung (LL) carcinoma; assay: as above; type: in vivo, mouse
Protocol: as §1

[27] = system: B16 melamoma; assay: as above; type: in vivo, mouse
Protocol: as §1

[28] = single treatment on day 1, median survival time at least 1.25 times control
[29] = daily treatments from day 1 to day 9

## COc1ccc2nc(C(=O)N[C@@H]3COC(=O)[C@H](C(C)(C)O)N(C)C(=O)CN(C)C(=O)CNC(=O)[C@@H]4[C@@H](O)CC=NN4C(=O)[C@H](NC(=O)c4nc5ccc(OC)cc5cc4O)COC(=O)[C@H](C(C)(C)O)N(C)C(=O)CN(C)C(=O)CNC(=O)[C@@H]4[C@@H](OC(C)=O)CC=NN4C3=O)c(O)cc2c1 [BBM-928B]
[1]
  ILB activity (prophage induction in lysogenic bacterium): No significant ILB activity
[2]; [28]
  Minimum Effective Dose (MED): 0.1 mg/kg/day
[3]
  MIC: > 100 µg/mL
[4]
  MIC: > 100 µg/mL
[5]
  MIC: > 100 µg/mL
[6]
  MIC: 25 µg/mL (≈ 18 µM)
[7]
  MIC: > 100 µg/mL
[8]
  MIC: > 100 µg/mL
[9]
  MIC: 12.5 µg/mL (≈ 9.02 µM)
[10]
  MIC: > 100 µg/mL
[11]
  MIC: > 100 µg/mL
[12]
  MIC: 25 µg/mL (≈ 18 µM)
[13]
  MIC: 25 µg/mL (≈ 18 µM)
[14]
  MIC: 25 µg/mL (≈ 18 µM)
[15]
  MIC: 12.5 µg/mL (≈ 9.02 µM)
[16]
  MIC: 50 µg/mL (≈ 36.1 µM)
[17]
  MIC: > 100 µg/mL
[18]
  MIC: 12.5 µg/mL (≈ 9.02 µM)
[19]
  MIC: > 100 µg/mL
[20]
  MIC: 25 µg/mL (≈ 18 µM)
[21]
  MIC: > 100 µg/mL
[22]; single treatment on day 1
  LD50, i.p.: 0.18 mg/kg/day
[23]
  MIC: 12.5 µg/mL (≈ 9.02 µM)

## COc1ccc2nc(C(=O)N[C@@H]3COC(=O)[C@H](C(C)(C)O)N(C)C(=O)CN(C)C(=O)CNC(=O)[C@@H]4[C@@H](O)CC=NN4C(=O)[C@H](NC(=O)c4nc5ccc(OC)cc5cc4O)COC(=O)[C@H](C(C)(C)O)N(C)C(=O)CN(C)C(=O)CNC(=O)[C@@H]4[C@@H](O)CC=NN4C3=O)c(O)cc2c1 [BBM-928C]
[1]
  ILB activity (prophage induction in lysogenic bacterium): No significant ILB activity
[3]
  MIC: > 100 µg/mL
[4]
  MIC: 100 µg/mL (≈ 74.4 µM)
[5]
  MIC: > 100 µg/mL
[6]
  MIC: 50 µg/mL (≈ 37.2 µM)
[7]
  MIC: > 100 µg/mL
[8]
  MIC: > 100 µg/mL
[9]
  MIC: 50 µg/mL (≈ 37.2 µM)
[10]
  MIC: > 100 µg/mL
[11]
  MIC: > 100 µg/mL
[12]
  MIC: 100 µg/mL (≈ 74.4 µM)
[13]
  MIC: 25 µg/mL (≈ 18.6 µM)
[14]
  MIC: 50 µg/mL (≈ 37.2 µM)
[15]
  MIC: 25 µg/mL (≈ 18.6 µM)
[16]
  MIC: > 100 µg/mL
[17]
  MIC: > 100 µg/mL
[18]
  MIC: 12.5 µg/mL (≈ 9.31 µM)
[19]
  MIC: > 100 µg/mL
[20]
  MIC: 50 µg/mL (≈ 37.2 µM)
[21]
  MIC: > 100 µg/mL
[22]; single treatment on day 1
  LD50, i.p.: 0.81 mg/kg/day
[23]
  MIC: 25 µg/mL (≈ 18.6 µM)

## COc1ccc2nc(C(=O)N[C@@H]3COC(=O)[C@H](C(C)(C)O)N(C)C(=O)CN(C)C(=O)CNC(=O)[C@@H]4[C@@H](OC(C)=O)CC=NN4C(=O)[C@H](NC(=O)c4nc5ccc(OC)cc5cc4O)COC(=O)[C@H](C(C)(C)O)N(C)C(=O)CN(C)C(=O)CNC(=O)[C@@H]4[C@@H](OC(C)=O)CC=NN4C3=O)c(O)cc2c1 [BBM-928A]
[1]
  ILB activity (prophage induction in lysogenic bacterium): No significant ILB activity
[2]; [29]
  Activity Ratio (BBM-928A vs. Mitomycin C): 100
  Minimum Effective Dose (MED): 0.001 mg/kg/day
[2]; single treatment on day 1
  Activity Ratio (BBM-928A vs. Mitomycin C): 30
[2]; [28]
  Minimum Effective Dose (MED): 0.003 mg/kg/day
[24]; [29]
  Activity Ratio (BBM-928A vs. Mitomycin C): 100
  Minimum Effective Dose (MED): 0.0001 mg/kg/day
[24]; single treatment on day 1
  Activity Ratio (BBM-928A vs. Mitomycin C): 100
[24]; [28]
  Minimum Effective Dose (MED): 0.003 mg/kg/day
[25]; [29]
  Activity Ratio (BBM-928A vs. Mitomycin C): 100
  Minimum Effective Dose (MED): 0.003 mg/kg/day
[25]; [28]
  Minimum Effective Dose (MED): > 0.1 mg/kg/day
[26]; [29]
  Activity Ratio (BBM-928A vs. Mitomycin C): 100
  Minimum Effective Dose (MED): 0.003 mg/kg/day
[26]; single treatment on day 1
  Activity Ratio (BBM-928A vs. Mitomycin C): 10
[26]; [28]
  Minimum Effective Dose (MED): 0.03 mg/kg/day
[27]; [29]
  Activity Ratio (BBM-928A vs. Mitomycin C): 100
  Minimum Effective Dose (MED): 0.003 mg/kg/day
[27]; single treatment on day 1
  Activity Ratio (BBM-928A vs. Mitomycin C): 300
[27]; [28]
  Minimum Effective Dose (MED): 0.003 mg/kg/day
[3]
  MIC: > 100 µg/mL
[4]
  MIC: 100 µg/mL (≈ 70.1 µM)
[5]
  MIC: > 100 µg/mL
[6]
  MIC: 12.5 µg/mL (≈ 8.76 µM)
[7]
  MIC: > 100 µg/mL
[8]
  MIC: > 100 µg/mL
[9]
  MIC: 6.3 µg/mL (≈ 4.41 µM)
[10]
  MIC: > 100 µg/mL
[11]
  MIC: > 100 µg/mL
[12]
  MIC: 25 µg/mL (≈ 17.5 µM)
[13]
  MIC: 25 µg/mL (≈ 17.5 µM)
[14]
  MIC: 25 µg/mL (≈ 17.5 µM)
[15]
  MIC: 6.3 µg/mL (≈ 4.41 µM)
[16]
  MIC: 25 µg/mL (≈ 17.5 µM)
[17]
  MIC: > 100 µg/mL
[18]
  MIC: 12.5 µg/mL (≈ 8.76 µM)
[19]
  MIC: > 100 µg/mL
[20]
  MIC: 12.5 µg/mL (≈ 8.76 µM)
[21]
  MIC: > 100 µg/mL
[22]; [29]
  LD50, i.p.: 0.013 mg/kg/day
[22]; single treatment on day 1
  LD50, i.p.: 0.13 mg/kg/day
[23]
  MIC: 6.3 µg/mL (≈ 4.41 µM)

## CO[C@@]12[C@H](COC(N)=O)C3=C(C(=O)C(C)=C(N)C3=O)N1C[C@@H]1N[C@@H]12 [Mitomycin C, reference compound]
[2]; [29]
  Minimum Effective Dose (MED): 0.1 mg/kg/day
[2]; [28]
  Minimum Effective Dose (MED): 0.1 mg/kg/day
[24]; [29]
  Minimum Effective Dose (MED): 0.03 mg/kg/day
[24]; [28]
  Minimum Effective Dose (MED): 0.3 mg/kg/day
[25]; [29]
  Minimum Effective Dose (MED): 0.3 mg/kg/day
[25]; [28]
  Minimum Effective Dose (MED): 3 mg/kg/day
[26]; [29]
  Minimum Effective Dose (MED): 0.3 mg/kg/day
[26]; [28]
  Minimum Effective Dose (MED): 0.3 mg/kg/day
[27]; [29]
  Minimum Effective Dose (MED): 0.3 mg/kg/day
[27]; [28]
  Minimum Effective Dose (MED): 1 mg/kg/day
